Measurements: publication PMC6792352, “Limited Chemical Structural Diversity Found to Modulate Thyroid Hormone Receptor in the Tox21 Chemical Library” (Environmental Health Perspectives, 2019)
Where a name gives a salt, the structure may show the parent alone.

Experiment: in vitro
Details: rat, gh3-tre-luc cells, AC50 (uM) modified / 1000

`Cc1nc2ccccc2s1` [2-Methylbenzothiazole] and `COC(=O)c1ccccc1C` [Methyl 2-methylbenzoate] cannot be ordered by CC50 at 24 h: over 90 µM for the first, over 90 µM for the second.

`COc1cccc(OC)c1C(=O)N[C@@H]1C(=O)N2[C@@H]1SC(C)(C)[C@@H]2C(=O)O` [Methicillin sodium hydrate] and `CCCC(=O)O[C@]1(C(=O)COC(=O)CC)[C@@H](C)C[C@H]2[C@@H]3CCC4=CC(=O)C=C[C@]4(C)[C@@]3(F)[C@@H](O)C[C@@]21C` [Betamethasone butyrate propionate] cannot be ordered by CC50 at 24 h: over 50 µM for the first, over 50 µM for the second.

`CC(=O)CC(=O)Nc1ccc(C)cc1C` [N-(2,4-Dimethylphenyl)-3-oxobutanamide] and `CCOc1ccc(NC(C)=O)cc1` [Phenacetin] cannot be ordered by CC50 at 24 h: over 90 µM for the first, over 50 µM for the second.

First: CCC=C1OC(=O)c2ccccc21 [3-Propylidenephthalide]
Second: Nc1ccc(N)c2c1C(=O)c1ccccc1C2=O [1,4-Diaminoanthraquinone]
The CC50 at 24 h of the first is higher: over 90 µM for the first, 55.3 µM for the second.

`C1COC1` [1,3-Propylene oxide] and `CCN1CCOCC1` [N-Ethylmorpholine] cannot be ordered by CC50 at 24 h: over 90 µM for the first, over 90 µM for the second.

`CC(C)O` [Isopropanol] and `CCOCC(C)O` (centres unmarked) [1-Ethoxy-2-propanol] cannot be ordered by CC50 at 24 h: over 100 µM for the first, over 90 µM for the second.

Compared with `O=C(O[C@@H]1C[C@@H]2C[C@H]3C[C@H](C1)N2CC3=O)c1c[nH]c2ccccc12` [Dolasetron mesylate], `O=C(O)COc1nn(Cc2ccccc2)c2ccccc12` [Bendazac sodium] is higher in CC50 at 24 h: 37.3 µM for the first, over 50 µM for the second.

`NCCCCCCN` [1,6-Hexanediamine] and `CCCCCCCCS` [1-Octanethiol] cannot be ordered by CC50 at 24 h: over 90 µM for the first, over 90 µM for the second.

Going from `CCCCCCOc1cc(C)c(O)c(C)c1C` [1-O-Hexyl-2,3,5-trimethylhydroquinone] to `CCCc1ccc(O)cc1` [4-Propylphenol], the CC50 at 24 h rises from 42.6 µM to over 90 µM.

`CCC[N+]1(C)CCCCC1` [1-Methyl-1-propylpiperidinium bromide] and `CCC(C)(C)C1CCC(OC)CC1` (centres unmarked) [1-Methoxy-4-tert-pentylcyclohexane] cannot be ordered by CC50 at 24 h: over 90 µM for the first, over 90 µM for the second.

`c1ccc(B(c2ccccc2)c2ccccc2)cc1` [Triphenylborane] and `c1ccc2c(c1)ccc1cc3c(ccc4ccccc43)cc12` [Dibenz(a,h)anthracene] cannot be ordered by CC50 at 24 h: over 90 µM for the first, over 50 µM for the second.

`CC(C)COC(=O)OCN1C(=O)CN(CCN2CC(=O)N(COC(=O)OCC(C)C)C(=O)C2)CC1=O` [Sobuzoxane] and `CC(=O)OC[C@H]1O[C@@](COC(C)=O)(O[C@H]2O[C@H](COC(C)=O)[C@@H](OC(C)=O)[C@H](OC(C)=O)[C@H]2OC(C)=O)[C@@H](OC(C)=O)[C@@H]1OC(C)=O` [Sucrose octaacetate] cannot be ordered by CC50 at 24 h: over 50 µM for the first, over 70 µM for the second.

`COC(=O)N/N=C/c1c[n+]([O-])c2ccccc2[n+]1[O-]` [Carbadox] and `CC(C)(C)C(=O)C(Oc1ccc(Cl)cc1)n1ccnc1` (centres unmarked) [Climbazole] cannot be ordered by CC50 at 24 h: over 50 µM for the first, over 50 µM for the second.

`CCN(CC)c1c([N+](=O)[O-])cc(C(F)(F)F)c(N)c1[N+](=O)[O-]` [Dinitramine] and `NC(=O)c1ncn([C@@H]2O[C@H](CO)[C@@H](O)[C@H]2O)c1N` [Acadesine] cannot be ordered by CC50 at 24 h: 85.3 µM for the first, over 50 µM for the second.

`O=C(O)C1CCC(C(=O)O)CC1` (centres unmarked) [1,4-Cyclohexanedicarboxylic acid] and `Cl[Si](Cl)(c1ccccc1)c1ccccc1` [Dichlorodiphenylsilane] cannot be ordered by CC50 at 24 h: over 90 µM for the first, over 90 µM for the second.

In the case of `CCO[Si](CCCN=C=O)(OCC)OCC` [(3-Isocyanatopropyl)triethoxysilane], the CC50 at 24 h was over 90 µM.

Same assay, conditions: rat, gh3-tre-luc cells, AC50 (uM) modified / 1000, Tox21_110001=Tox21_110501; viability, 1 nM T3 present, 24 h

With `CNC(C)(C)Cc1ccccc1` [Mephentermine hemisulfate] the CC50 at 24 h was over 20 µM.

Same assay, conditions: rat, gh3-tre-luc cells, AC50 (uM) modified / 1000, Tox21_110001=Tox21_111807; viability, 1 nM T3 present, 24 h

`C[C@@H](Cc1ccccc1)N(C)C` [Dimetamfetamine] showed a CC50 at 24 h of over 50 µM.

Same assay, conditions: rat, gh3-tre-luc cells, AC50 (uM) modified / 1000, Tox21_110001=Tox21_200092; viability, 1 nM T3 present, 24 h

`COP(=O)(OC)OC(=CCl)c1cc(Cl)c(Cl)cc1Cl` [Tetrachlorovinphos] gave a CC50 at 24 h of over 100 µM.

Same assay, conditions: rat, gh3-tre-luc cells, AC50 (uM) modified / 1000, Tox21_110001=Tox21_201498; viability, 1 nM T3 present, 24 h

`COc1ccc(N)cc1` [4-Methoxyaniline hydrochloride] gave a CC50 at 24 h of over 90 µM.
